# Structures can show the parent of a compound that is named as a salt.
# Target: T1, SARS-CoV-2 PLpro (Severe acute respiratory syndrome coronavirus 2, UniProt P0DTD1)
# T1 construct: containing 60 nM papain-like protease
# Assay: biochemical
# Conditions: not given
row,SMILES,IC50
1,"COc1ccc([C@@H](C)NC(=O)c2cc(N3[C@@H]4CC[C@H]3CN(C)C4)ccc2C)cc1OC [Example 10, N-[(1R)-1-(3,4-Dimethoxyphenyl)ethyl]-2-methyl-5-[(1S,5R)-3-methyl-3,8-diazabicyclo[3.2.1]octan-8-yl]benzamide]",< 100 µM

# Same assay, conditions: 60 nM papain-like protease, 50 μM Z-RLRGG-AMC, pH 7.5, 37° C.; read-out: SARS-CoV-2 PLpro IC50
row,SMILES,IC50
1,"C[C@@H](NC(=O)c1cccc(N2CCCCC2)c1)c1cccc2ccccc12 [Example 1, N-[(1R)-1-(1-naphthyl)ethyl]-3-(1-piperidyl)benzamide]",> 100 µM
2,"C[C@@H](NC(=O)c1cc(-c2ccccc2)ccn1)c1cccc2ccccc12 [Example 3, N-[(1R)-1-(1-Naphthyl)ethyl]-4-phenyl-pyridine-2-carboxamide]",> 100 µM
3,"Cc1ccc(-c2ccccc2)cc1C(=O)N[C@H](C)c1cccc2ccccc12 [Example 5, 2-Methyl-N-[(1R)-1-(1-naphthyl)ethyl]-5-phenyl-benzamide]",> 100 µM
4,"CC(=O)N1CCC(c2cccc(C(=O)N[C@H](C)c3cccc4ccccc34)c2)CC1 [Example 7, 3-(1-Acetyl-4-piperidyl)-N-[(1R)-1-(1-naphthyl)ethyl]benzamide]",> 100 µM
5,"Cc1cnc(N2CCN(C)CC2)nc1C(=O)N[C@H](C)c1cccc2ccccc12 [Example 8, 5-Methyl-2-(4-methylpiperazin-1-yl)-N-[(1R)-1-(naphthalen-1-yl)ethyl]pyrimidine-4-carboxamide Hydrochloride Salt]",< 100 µM
6,"C[C@@H](NC(=O)c1cc(N2CCN(C)CC2)ccn1)c1cccc2ccccc12 [Example 14, 4-(4-Methylpiperazin-1-yl)-N-[(1R)-1-(1-naphthyl)ethyl]pyridine-2-carboxamide]",> 100 µM
7,"Cc1ccc(N2CCN(C(=O)OC(C)(C)C)CC2)cc1C(=O)N[C@H](C)c1cccc2ccccc12 [Example 28, tert-Butyl 4-[4-methyl-3-[(1R)-1-(1-naphthyl)ethyl]carbamoyl]phenyl]piperazine-1-carboxylate]",< 100 µM
8,"Cc1ccc(N2CCN(C)CC2)cc1C(=O)N(C)[C@H](C)c1cccc2ccccc12 [Example 35, N,2-Dimethyl-5-(4-methylpiperazin-1-yl)-N-[(1R)-1-(1-naphthyl)ethyl]benzamide]",< 100 µM
9,"COc1ccc([C@@H](C)NC(=O)c2cc(N3CC4(CNC4)C3)ccc2C)cc1OC [Example 37, 5-(2,6-Diazaspiro[3.3]heptan-2-yl)-N-[(1R)-1-(3,4-dimethoxyphenyl)ethyl]-2-methyl-benzamide]",< 20 µM
10,"Cc1ccc(N2CCN(C)CC2)cc1C(=O)N[C@H](C)c1cccc(S(C)(=O)=O)c1 [Example 38, 2-Methyl-5-(4-methylpiperazin-1-yl)-N-[(1R)-1-(3-methylsulfonylphenyl)ethyl] benzamide]",< 20 µM
11,"Cc1ccc(N2CCN(C)CC2)cc1C(=O)N[C@H](C)c1cccc(-c2ccncc2)c1 [Example 51, 2-Methyl-5-(4-methylpiperazin-1-yl)-N-[(1R)-1-[3-(4-pyridyl)phenyl]ethyl]benzamide]",< 2 µM
12,"Cc1ccc(N2CCN(C)CC2)cc1C(=O)N[C@H](C)c1cccc(CCC(=O)O)c1 [Example 82, 3-[3-[(1R)-1-[[2-Methyl-5-(4-methylpiperazin-1-yl)benzoyl]amino]ethyl]phenyl] propanoic Acid]",< 100 µM
13,"Cc1ccc(N2CCN(C)CC2)cc1C(=O)N[C@H](C)c1cccc(-c2cccc(C(=O)O)c2)c1 [Example 83, 3-[3-[(1R)-1-[[2-Methyl-5-(4-methylpiperazin-1-yl)benzoyl]amino]ethyl]phenyl]benzoic Acid]",< 5 µM
14,"Cc1ccc(N2CCN(C)CC2)cc1C(=O)N[C@H](C)c1cccc(CCC(=O)N(C)C)c1 [Example 84, N-[(1R)-1-[3-[3-(Dimethylamino)-3-oxo-propyl]phenyl]ethyl]-2-methyl-5-(4-methylpiperazin-1-yl)benzamide]",< 20 µM
15,"Cc1ccc(N2CCN(S(C)(=O)=O)CC2)cc1C(=O)N[C@H](C)c1cccc2ccccc12 [Example 110, 2-Methyl-5-(4-methylsulfonylpiperazin-1-yl)-N-[(1R)-1-(1-naphthyl)ethyl]benzamide]",> 100 µM
16,"Cc1ccc(N2CC[C@H](O)C2)cc1C(=O)N[C@H](C)c1cccc2ccccc12 [Example 119, 5-[(3S)-3-Hydroxypyrrolidin-1-yl]-2-methyl-N-[(1R)-1-(1-naphthyl)ethyl]benzamide]",< 100 µM
17,"Cc1ccc(N2CCN(C)CC2)cc1C(=O)N[C@H](C)c1cnn(C)c1 [Example 127, 2-Methyl-5-(4-methylpiperazin-1-yl)-N-[(1R)-1-(1-methylpyrazol-4-yl)ethyl]benzamide]",< 100 µM
18,"C[C@@H](NC(=O)c1cc(N2CCN(CC(F)(F)F)CC2)ccc1Cl)c1cccc2ccccc12 [Example 131, 2-Chloro-N-[(1R)-1-(1-naphthyl)ethyl]-5-[4-(2,2,2-trifluoroethyl)piperazin-1-yl]benzamide]",> 100 µM
19,"C[C@@H](NC(=O)c1cc(N2CCNC(C(F)(F)F)C2)ccc1Cl)c1cccc2ccccc12 (stereo partly drawn) [Example 132, 2-Chloro-N-[(1R)-1-(1-naphthyl)ethyl]-5-[3-(trifluoromethyl)piperazin-1-yl]benzamide]",< 100 µM
20,"C[C@@H](NC(=O)c1cccc(-c2ccnc(N3CCN(C)CC3)n2)c1)c1cccc2ccccc12 [Example 137, 3-[2-(4-Methylpiperazin-1-yl)pyrimidin-4-yl]-N-[(1R)-1-(1-naphthyl)ethyl]benzamide]",> 100 µM

row,SMILES,IC50
1,"C[C@@H](NC(=O)c1cccc(-c2ccnc(N3CCOCC3)n2)c1)c1cccc2ccccc12 [Example 138, 3-(2-Morpholinopyrimidin-4-yl)-N-[(1R)-1-(1-naphthyl)ethyl]benzamide]",> 100 µM
2,"Cc1ccc(-c2ccncc2)cc1C(=O)N[C@H](C)c1cccc2ccccc12 [Example 139, 2-Methyl-N-[(1R)-1-(1-naphthyl)ethyl]-5-(4-pyridyl)benzamide]",< 20 µM
3,"Cc1ccc(-c2cccc(CCN3CCOCC3)c2)cc1C(=O)N[C@H](C)c1cccc2ccccc12 [Example 141, 2-Methyl-5-[3-(2-morpholinoethyl)phenyl]-N-[(1R)-1-(1-naphthyl)ethyl]benzamide]",> 100 µM
4,"Cc1ccc(-c2cccc(CCO)c2)cc1C(=O)N[C@H](C)c1cccc2ccccc12 [Example 142, 5-[3-(2-Hydroxyethyl)phenyl]-2-methyl-N-[(1R)-1-(1-naphthyl)ethyl]benzamide]",> 100 µM
5,"Cc1ccc(-c2cccnc2)cc1C(=O)N[C@H](C)c1cccc2ccccc12 [Example 143, 2-Methyl-N-[(1R)-1-(1-naphthyl)ethyl]-5-(3-pyridyl)benzamide]",< 20 µM
6,C[C@@H](NC(=O)c1cc(-c2ccc(CN3CCN(C)CC3)cc2)ccc1Cl)c1cccc2ccccc12 [Example 145],< 100 µM
7,"C[C@@H](NC(=O)c1cc(-c2ccncc2)cn1C)c1cccc2ccccc12 [Example 148, 1-Methyl-N-[(1R)-1-(1-naphthyl)ethyl]-4-(4-pyridyl)pyrrole-2-carboxamide]",> 100 µM
8,"C[C@@H](NC(=O)c1cc(C2=CCNC2)cn1C)c1cccc2ccccc12 [Example 149, 4-(2,5-Dihydro-1H-pyrrol-3-yl)-1-methyl-N-[(1R)-1-(1-naphthyl)ethyl]pyrrole-2-carboxamide Hydrochloride Salt]",< 100 µM
9,"C[C@@H](NC(=O)c1cc(C2CCNC2)cn1C)c1cccc2ccccc12 (stereo partly drawn) [Example 150, 1-Methyl-N-[(1R)-1-(1-naphthyl)ethyl]-4-pyrrolidin-3-yl-pyrrole-2-carboxamide]",< 100 µM
10,"C[C@@H](NC(=O)c1cc(-c2ccc(C3CCNCC3)cc2)cn1C)c1cccc2ccccc12 [Example 151, 1-Methyl-N-[(1R)-1-(1-naphthyl)ethyl]-4-[4-(4-piperidyl)phenyl]pyrrole-2-carboxamide]",> 100 µM
11,"Cc1ccc(-c2cccc(S(=O)(=O)N3CCNCC3)c2)cc1C(=O)N[C@H](C)c1cccc2ccccc12 [Example 152, 2-Methyl-N-[(1R)-1-(1-naphthyl)ethyl]-5-(3-piperazin-1-ylsulfonylphenyl)benzamide]",< 100 µM
12,"Cc1ccc(-c2cn[nH]c2)cc1C(=O)N[C@H](C)c1cccc2ccccc12 [Example 153, 2-Methyl-N-[(1R)-1-(1-naphthyl)ethyl]-5-(1H-pyrazol-4-yl)benzamide]",< 20 µM
13,"C[C@@H](NC(=O)c1cccc(C2CCN(CCC(=O)O)CC2)c1)c1cccc2ccccc12 [Example 164, 3-[4-[3-[[(1R)-1-(1-Naphthyl)ethyl]carbamoyl]phenyl]-1-piperidyl]propanoic acid]",< 100 µM
14,"Cc1ccc(-c2ccnc(N3CCN(CCC(=O)O)CC3)c2)cc1C(=O)N[C@H](C)c1cccc2ccccc12 [Example 169, 3-[4-[4-[4-Methyl-3-[[(1R)-1-(1-naphthyl)ethyl]carbamoyl]phenyl]-2-pyridyl]piperazin-1-yl]propanoic acid]",< 20 µM
15,"Cc1ccc(N2CCN(CC(=O)O)CC2)cc1C(=O)N[C@H](C)c1cccc2ccccc12 [Example 171, 2-[4-[4-Methyl-3-[[(1R)-1-(1-naphthyl)ethyl]carbamoyl]phenyl]piperazin-1-yl]acetic Acid]",< 2 µM
16,"C[C@@H](NC(=O)c1cccc(C(=O)N2CCN(C)CC2)c1)c1cccc2ccccc12 [Example 173, 3-(4-Methylpiperazine-1-carbonyl)-N-[(1R)-1-(1-naphthyl)ethyl]benzamide]",> 100 µM
17,"C[C@@H](NC(=O)c1cccc(C(=O)NCCN(C)C)c1)c1cccc2ccccc12 [Example 174, N1-[2-(Dimethylamino)ethyl]-N3-[(1R)-1-(1-naphthyl)ethyl]benzene-1,3-dicarboxamide]",< 100 µM
18,"C[C@@H](NC(=O)c1cccc(C2CCN(CCS(=O)(=O)c3ccccc3)CC2)c1)c1cccc2ccccc12 [Example 175, 3-[1-[2-(Benzenesulfonyl)ethyl]-4-piperidyl]-N-[(1R)-1-(1-naphthyl)ethyl]benzamide]",> 100 µM
19,"C[C@@H](NC(=O)c1cccc(C2CCN(CCS(C)(=O)=O)CC2)c1)c1cccc2ccccc12 [Example 176, 3-[1-(2-Methylsulfonylethyl)-4-piperidyl]-N-[(1R)-1-(1-naphthyl)ethyl]benzamide]",< 100 µM

# Reference: patent US20240383852A1, “ANTI-VIRAL COMPOUNDS” (INFEX Therapeutics Limited, priority 2021, published 2024)
